Data taken from publication PMC11645656, “MRGPRX4 mediates phospho-drug associated pruritus in a humanized mouse model” (Science translational medicine, 2024).
Where “and” joins values, the source holds several entries; their conditions need not be identical. Equal entries are not always repeated.

Assays:
[1] = test system: NP2-X4+ mice (MRGPRX4 in Mrgpra3+ NP2 sensory neurons); test: Itch behavioral study (scratching bouts after subcutaneous nape injection) in NP2-X4+ mice; format: in vivo, mouse; details: for Scratching / itch behavior, NP2-X4+ mice vs WT littermates: 50 μl 10 mM nape injection, 30 min; for Scratching bouts of individual animals: NP2-X4+, 30 min after injection of 50 μl 10 mM into the nape, each cell one mouse
NP2-WT mice = test: Itch behavioral study (scratching bouts after subcutaneous nape injection) in littermate control NP2-WT mice; format: in vivo; details: 30 min after injection of 50 μl 10 mM into the nape, each cell one mouse
HTLA cells = test: PRESTO-Tango β-arrestin recruitment assay, parental HTLA cells without MRGPRX4 (control, fig. S1); format: cell-based
Source text: Supplement NIHMS2038790-supplement-table.xlsx, sheet "fig. S1" | column: Concentration (M)

MRGPRX4 WT (S83) = MRGPRX4 WT (S83) (Homo sapiens, UniProt Q96LA9, L83S); test: PRESTO-Tango β-arrestin recruitment assay, HTLA cells stably expressing WT (S83) MRGPRX4; format: cell-based; parameters: expressed in transfected cells; details: for PRESTO-Tango response (fig. S1), single replicate: HTLA::MRGPRX4; for fig. S7 response (raw signal), concentration-response: WT, single replicate
Sequence of MRGPRX4 WT (S83) (Q96LA9 whole entry L83S): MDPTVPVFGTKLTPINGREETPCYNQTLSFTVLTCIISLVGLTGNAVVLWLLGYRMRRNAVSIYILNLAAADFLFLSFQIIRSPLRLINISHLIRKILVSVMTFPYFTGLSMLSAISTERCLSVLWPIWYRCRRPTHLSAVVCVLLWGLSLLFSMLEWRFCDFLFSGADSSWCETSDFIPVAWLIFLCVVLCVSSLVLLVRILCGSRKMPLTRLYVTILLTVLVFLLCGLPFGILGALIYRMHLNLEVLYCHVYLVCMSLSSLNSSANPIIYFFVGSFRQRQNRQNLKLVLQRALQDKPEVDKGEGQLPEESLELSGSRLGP

## CC(C)c1cccc(C(C)C)c1OCOP(=O)(O)O [Fospropofol]
[1]
  Scratching / itch behavior, NP2-X4+ mice vs WT littermates: significantly increased scratching behavior
  Scratching bouts of individual animals: 79 (2×) and 60 and 28 and 56 and 5 and 40 and 132 and 49 and 4 and 42 and 59 and 43 and 52
NP2-WT mice
  Scratching bouts of individual animals: 2 and 38 and 3 and 10 and 15 and 17 and 76 and 40 and 18 and 43
HTLA cells; concentration 1.95e-8 M
  PRESTO-Tango response (fig. S1), single replicate: 0.00694 and 0.004644 and 0.006153 and 0.00965 and 0.002832 and 0.003328 and 0.008458 and 0.007173 and 0.001142
HTLA cells; concentration 3.91e-8 M
  PRESTO-Tango response (fig. S1), single replicate: 0.00458 and 0.005779 and 0.004441 and 0.006153 and 0.01503 and 0.00701 and 0.000445 and 0.01011 and 0.01094
HTLA cells; concentration 7.81e-8 M
  PRESTO-Tango response (fig. S1), single replicate: 0.003343 and 0.006009 and 0.009902 and 0.005737 and 0.003469 and 0.004602 and 0.006927 and 0.00283 and 0.006775
HTLA cells; concentration 1.56e-7 M
  PRESTO-Tango response (fig. S1), single replicate: 0.003508 and 0.005703 and 0.009009 and 0.008984 and 0.006514 and 0.007694 and 0.009731 and 0.002935 and 0.00804
HTLA cells; concentration 3.13e-7 M
  PRESTO-Tango response (fig. S1), single replicate: 0.002922 and 0.004925 and 0.007537 and 0.0115 and 0.004508 and 0.006726 and 0.004052 and 0.005477 and 0.00953
HTLA cells; concentration 6.25e-7 M
  PRESTO-Tango response (fig. S1), single replicate: 0.004976 and 0.01037 and 0.009311 and 0.01735 and 0.01013 and 0.008402 and 0.01193 and 0.01132 and 0.007015
HTLA cells; concentration 1.25e-6 M
  PRESTO-Tango response (fig. S1), single replicate: 0.005116 and 0.008433 and 0.01261 and 0.0248 and 0.006302 and 0.01317 and 0.01357 and 0.000979 and 0.02066
HTLA cells; concentration 2.5e-6 M
  PRESTO-Tango response (fig. S1), single replicate: 0.004708 and 0.01187 and 0.01433 and 0.0357 and 0.005924 and 0.01747 and 0.01767 and 0.01738 and 0.009944
HTLA cells; concentration 5e-6 M
  PRESTO-Tango response (fig. S1), single replicate: 0.006149 and 0.02356 and 0.0209 and 0.04204 and 0.009157 and 0.0186 and 0.01895 and 0.003902 and 0.03736
HTLA cells; concentration 1e-5 M
  PRESTO-Tango response (fig. S1), single replicate: 0.007859 and 0.01771 and 0.01368 and 0.04592 and 0.005971 and 0.02299 and 0.000906 and 0.03405 and 0.02211
HTLA cells; concentration 2e-5 M
  PRESTO-Tango response (fig. S1), single replicate: 0.005575 and 0.02041 and 0.01412 and 0.04838 and 0.01541 and 0.027 and 0.00299 and 0.03805 and 0.0244
MRGPRX4 WT (S83); concentration 1.95e-9 M
  PRESTO-Tango response (fig. S1), single replicate: 0.05347 and 0.06522 and 0.05931 and 0.2207 and 0.1773 and 0.1674 and 0.1338 and 0.1758 and 0.0967
MRGPRX4 WT (S83); concentration 3.91e-9 M
  PRESTO-Tango response (fig. S1), single replicate: 0.1053 and 0.08982 and 0.09599 and 0.3062 and 0.2141 and 0.1584 and 0.1973 and 0.1505 and 0.1812
MRGPRX4 WT (S83); concentration 7.81e-9 M
  PRESTO-Tango response (fig. S1), single replicate: 0.09268 and 0.116 and 0.1017 and 0.3688 and 0.253 and 0.2802 and 0.1468 and 0.2156 and 0.1585
MRGPRX4 WT (S83); concentration 1.56e-8 M
  PRESTO-Tango response (fig. S1), single replicate: 0.2132 and 0.2887 and 0.213 and 0.6375 and 0.7915 and 0.6641 and 0.3649 and 0.3666 and 0.1947
MRGPRX4 WT (S83); concentration 3.13e-8 M
  PRESTO-Tango response (fig. S1), single replicate: 0.293 and 0.3131 and 0.2408 and 1.844 and 1.563 and 1.804 and 0.7421 and 0.6696 and 0.4151
MRGPRX4 WT (S83); concentration 6.25e-8 M
  PRESTO-Tango response (fig. S1), single replicate: 0.5602 and 0.5719 and 0.4853 and 3.825 and 3.698 and 3.023 and 1.231 and 1.143 and 1.136
MRGPRX4 WT (S83); concentration 1.25e-7 M
  PRESTO-Tango response (fig. S1), single replicate: 0.9649 and 0.9632 and 0.8205 and 5.958 and 5.765 and 4.1962 and 2.249 and 2.15 and 1.832
MRGPRX4 WT (S83); concentration 2.5e-7 M
  PRESTO-Tango response (fig. S1), single replicate: 1.521 and 1.3 and 1.661 and 7.755 and 5.82 and 6.8361 and 3.176 and 3.046 and 2.687
MRGPRX4 WT (S83); concentration 5e-7 M
  PRESTO-Tango response (fig. S1), single replicate: 1.9 and 1.632 and 1.827 and 8.423 and 7.014 and 7.51 and 3.752 and 3.569 and 3.3596
MRGPRX4 WT (S83); concentration 1e-6 M
  PRESTO-Tango response (fig. S1), single replicate: 2.509 and 2.322 and 1.947 and 8.611 and 7.367 and 6.973 and 3.852 and 4.064 and 3.742
MRGPRX4 WT (S83); concentration 2e-6 M
  PRESTO-Tango response (fig. S1), single replicate: 2.446 and 2.467 and 2.134 and 8.437 and 7.773 and 6.136 and 3.188 and 3.088 and 4.194
MRGPRX4 WT (S83); 1.95e-9 M
  fig. S7 response (raw signal), concentration-response: 16738 and 13375 and 17578.5 and 9669.59 and 5346.95 and 6521.98 and 5931.28 and 22070.2 and 17734.5
MRGPRX4 WT (S83); 3.91e-9 M
  fig. S7 response (raw signal), concentration-response: 15842.1 and 19726.2 and 15050.8 and 18116.6 and 10530.6 and 8981.76 and 9599.26 and 30619.8 and 21413.5
MRGPRX4 WT (S83); 7.81e-9 M
  fig. S7 response (raw signal), concentration-response: 28015.3 and 14682.6 and 21560.1 and 15853.2 and 9267.54 and 11599.7 and 10170.8 and 36884.4 and 25297.6
MRGPRX4 WT (S83); 1.56e-8 M
  fig. S7 response (raw signal), concentration-response: 66409.6 and 36485.8 and 36662.8 and 19473.7 and 21324 and 28869.2 and 21303.6 and 63745.9 and 79152.7
MRGPRX4 WT (S83); 3.13e-8 M
  fig. S7 response (raw signal), concentration-response: 180426 and 74208.2 and 66960.2 and 41510.5 and 29299.2 and 31309.9 and 24081.1 and 184359 and 156258
MRGPRX4 WT (S83); 6.25e-8 M
  fig. S7 response (raw signal), concentration-response: 302326 and 123092 and 114256 and 113554 and 56022.5 and 57189.8 and 48533.4 and 382536 and 369774
MRGPRX4 WT (S83); 1.25e-7 M
  fig. S7 response (raw signal), concentration-response: 419620 and 224898 and 215037 and 183215 and 96490.1 and 96321.7 and 82049.1 and 595774 and 576456
MRGPRX4 WT (S83); 2.5e-7 M
  fig. S7 response (raw signal), concentration-response: 683610 and 317574 and 304633 and 268745 and 152100 and 129974 and 166066 and 775519 and 581976
MRGPRX4 WT (S83); 5e-7 M
  fig. S7 response (raw signal), concentration-response: 751045 and 375202 and 356942 and 335960 and 190041 and 163176 and 182733 and 842325 and 701403
MRGPRX4 WT (S83); 1e-6 M
  fig. S7 response (raw signal), concentration-response: 697307 and 385223 and 406436 and 374152 and 250882 and 232214 and 194658 and 861126 and 736707
MRGPRX4 WT (S83); 2e-6 M
  fig. S7 response (raw signal), concentration-response: 613596 and 318811 and 308756 and 419448 and 244609 and 246673 and 213444 and 843724 and 777268

## O=C1NC(=O)C(c2ccccc2)(c2ccccc2)N1 [Phenytoin]
[1]
  Scratching / itch behavior, NP2-X4+ mice vs WT littermates: no differences in itch behavior were detected
  Scratching bouts of individual animals: 6 and 0 and 19 and 1 (2×) and 14 and 16 and 21 and 12 and 20
NP2-WT mice
  Scratching bouts of individual animals: 7 (2×) and 14 and 1 and 11 and 59 and 2 and 5 and 42 and 24
HTLA cells; concentration 4.88281e-6 M
  PRESTO-Tango response (fig. S1), single replicate: 0.008545 and 0.005867 and 0.007953 and 0.006901 and 0.004547 and 0.009824
HTLA cells; concentration 9.76563e-6 M
  PRESTO-Tango response (fig. S1), single replicate: 0.00741 and 0.01006 and 0.006055 and 0.01246 and 0.001908 and 0.0161
HTLA cells; concentration 1.95313e-5 M
  PRESTO-Tango response (fig. S1), single replicate: 0.004145 and 0.01453 and 0.008851 and 0.01106 and 0.007187 and 0.01768
HTLA cells; concentration 3.90625e-5 M
  PRESTO-Tango response (fig. S1), single replicate: 0.005318 and 0.007104 and 0.005862 and 0.009351 and 0.00878 and 0.001453
HTLA cells; concentration 7.8125e-5 M
  PRESTO-Tango response (fig. S1), single replicate: 0.01242 and 0.005662 and 0.007299 and 0.009043 and 0.01323 and 0.004261
HTLA cells; concentration 0.0003125 M
  PRESTO-Tango response (fig. S1), single replicate: 0.006045 and 0.003571 and 0.004631 and 0.006824 and 0.00263 and 0.004138
HTLA cells; concentration 0.000625 M
  PRESTO-Tango response (fig. S1), single replicate: 0.006823 and 0.004668 and 0.00481 and 0.009762 and 0.00692 and 0.01249
HTLA cells; concentration 0.0025 M
  PRESTO-Tango response (fig. S1), single replicate: 0.006747 and 0.00542 and 0.005105 and 0.007273 and 0.002426 and 0.006102
HTLA cells; concentration 0.005 M
  PRESTO-Tango response (fig. S1), single replicate: 0.003966 and 0.00315 and 0.01104 and 0.009531 and 0.005922 and 0.01091
MRGPRX4 WT (S83); concentration 4.88281e-6 M
  PRESTO-Tango response (fig. S1), single replicate: 0.1853 and 0.188 and 0.1763 and 0.05734 and 0.2683 and 0.2239
MRGPRX4 WT (S83); concentration 9.76563e-6 M
  PRESTO-Tango response (fig. S1), single replicate: 0.2008 and 0.1594 and 0.1746 and 0.2158 and 0.02233 and 0.2967
MRGPRX4 WT (S83); concentration 1.95313e-5 M
  PRESTO-Tango response (fig. S1), single replicate: 0.2906 and 0.2732 and 0.1192 and 0.006784 and 0.3171 and 0.3592
MRGPRX4 WT (S83); concentration 3.90625e-5 M
  PRESTO-Tango response (fig. S1), single replicate: 0.1519 and 0.183 and 0.2178 and 0.1316 and 0.1884 and 0.2326
MRGPRX4 WT (S83); concentration 7.8125e-5 M
  PRESTO-Tango response (fig. S1), single replicate: 0.1378 and 0.1891 and 0.1982 and 0.232 and 0.1107 and 0.1825
MRGPRX4 WT (S83); concentration 0.0003125 M
  PRESTO-Tango response (fig. S1), single replicate: 0.1547 and 0.2414 and 0.1479 and 0.03891 and 0.4024 and 0.1026
MRGPRX4 WT (S83); concentration 0.000625 M
  PRESTO-Tango response (fig. S1), single replicate: 0.1541 and 0.14 and 0.1288 and 0.1405 and 0.1553 and 0.127
MRGPRX4 WT (S83); concentration 0.0025 M
  PRESTO-Tango response (fig. S1), single replicate: 0.1159 and 0.09904 and 0.1083 and 0.002223 and 0.1612 and 0.1598
MRGPRX4 WT (S83); concentration 0.005 M
  PRESTO-Tango response (fig. S1), single replicate: 0.112 and 0.09938 and 0.09678 and 0.03875 and 0.1733 and 0.09617
